Earlier results in patent publication US20230159467A1, “NOVEL COMPOUNDS USEFUL IN THE TREATMENT AND/OR PREVENTION OF A DISEASE, DISORDER OR CONDITION ASSOCIATED WITH ANGIOTENSIN II” (Vicore Pharma AB, priority 2020, published 2023).

Key:
[1] = target: CYP2C19 (Homo sapiens, UniProt P33261); details: at 10 μM; from Bioorg. Med. Chem. 2010, 18 (12), 4570-4590; cited from earlier work
[2] = target: CYP2D6 (Homo sapiens, UniProt P10635); details: at 10 μM; from Bioorg. Med. Chem. 2010, 18 (12), 4570-4590; cited from earlier work
[3] = system: CYP3A; details: at 10 μM; midazolam substrate; from Bioorg. Med. Chem. 2010, 18 (12), 4570-4590; cited from earlier work

CYP2D6, sequence (P10635 whole entry): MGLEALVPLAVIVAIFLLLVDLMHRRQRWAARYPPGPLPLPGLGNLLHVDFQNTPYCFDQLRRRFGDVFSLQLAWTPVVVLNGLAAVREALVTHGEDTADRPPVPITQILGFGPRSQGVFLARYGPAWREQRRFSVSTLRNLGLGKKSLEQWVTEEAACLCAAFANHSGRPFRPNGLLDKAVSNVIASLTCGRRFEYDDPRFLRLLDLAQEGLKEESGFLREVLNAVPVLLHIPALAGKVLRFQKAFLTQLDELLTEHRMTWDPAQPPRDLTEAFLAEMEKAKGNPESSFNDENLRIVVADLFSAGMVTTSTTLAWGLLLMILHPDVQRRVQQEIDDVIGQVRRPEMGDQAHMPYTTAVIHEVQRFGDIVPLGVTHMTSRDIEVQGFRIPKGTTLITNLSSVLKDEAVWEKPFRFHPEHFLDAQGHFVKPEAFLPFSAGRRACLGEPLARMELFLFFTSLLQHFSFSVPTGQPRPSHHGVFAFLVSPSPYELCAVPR
CYP2C19, sequence (P33261 whole entry): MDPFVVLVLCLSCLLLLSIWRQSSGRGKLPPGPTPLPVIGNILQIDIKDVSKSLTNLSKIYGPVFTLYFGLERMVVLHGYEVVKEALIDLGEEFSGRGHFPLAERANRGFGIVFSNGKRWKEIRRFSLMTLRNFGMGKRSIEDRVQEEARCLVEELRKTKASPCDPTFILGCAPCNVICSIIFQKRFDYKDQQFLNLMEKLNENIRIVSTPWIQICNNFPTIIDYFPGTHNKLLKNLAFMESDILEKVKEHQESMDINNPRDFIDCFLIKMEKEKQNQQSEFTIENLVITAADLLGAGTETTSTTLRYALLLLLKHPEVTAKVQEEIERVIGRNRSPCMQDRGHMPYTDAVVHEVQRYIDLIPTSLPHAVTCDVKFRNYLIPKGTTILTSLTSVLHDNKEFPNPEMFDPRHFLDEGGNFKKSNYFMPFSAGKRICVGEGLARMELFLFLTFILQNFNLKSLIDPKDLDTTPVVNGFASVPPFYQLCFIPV

Structure (SMILES): CCCCOC(=O)NS(=O)(=O)c1sc(CC(C)C)cc1-c1ccc(Cn2ccnc2)cc1 [Example C21, butyl ((3-(4-((1H-imidazol-1-yl)methyl)phenyl)-5-isobutylthiophen-2-yl)sulfonyl)carbamate]
- CYP 450 Inhibition CYP2C19 [1]: 67%
- CYP 450 Inhibition CYP2D6 [2]: 41%
- CYP 450 Inhibition CYP3A midazolam [3]: 82%
